Data on five compounds can be found in ChEMBL document CHEMBL1138366, “Conformational comparisons of a series of tachykinin peptide analogs” (J Med Chem, 2007).

For the experiment, the target named is Substance-P receptor (Rattus norvegicus, UniProt P14600). Description: Displacement of [125I]Lys3-substance P from rat NK1 receptor expressed in CHO cells. In kind it is cell-based.

Structures are written as SMILES. Residues, ends and D or L forms follow the SMILES beside them.

Substance-P receptor, sequence (P14600 whole entry): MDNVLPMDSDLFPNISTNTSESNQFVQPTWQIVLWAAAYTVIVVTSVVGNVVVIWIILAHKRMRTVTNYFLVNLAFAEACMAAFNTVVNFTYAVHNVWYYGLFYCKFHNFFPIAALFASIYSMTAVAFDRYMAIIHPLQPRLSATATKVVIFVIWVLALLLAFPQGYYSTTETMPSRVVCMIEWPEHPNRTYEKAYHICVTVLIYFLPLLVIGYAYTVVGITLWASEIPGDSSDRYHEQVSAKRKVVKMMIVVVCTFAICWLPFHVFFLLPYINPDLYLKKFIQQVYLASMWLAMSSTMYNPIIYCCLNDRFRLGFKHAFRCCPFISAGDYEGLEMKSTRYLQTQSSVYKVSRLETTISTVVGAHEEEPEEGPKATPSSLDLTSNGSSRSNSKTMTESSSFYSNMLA

In the case of `CSCC[C@H](NC(=O)[C@H](CC(C)C)NC(=O)CNC(=O)[C@H](Cc1ccccc1)NC(=O)[C@H](Cc1ccccc1)NC(=O)[C@H](CO)NC(=O)[C@H](CCC(N)=O)NC(=O)[C@@H]1CCCN1C(=O)[C@H](CCCCN)NC(=O)[C@@H]1CCCN1C(=O)[C@@H](N)CCCN=C(N)N)C(N)=O`, the IC50 – broadly, the concentration at which inhibition is half-maximal – (read-out: IC50) is 4.1 nM. For the compound `CC[C@H](C)[C@H](NC(=O)[C@H](Cc1ccccc1)NC(=O)[C@H](CO)NC(=O)[C@H](C)NC(=O)[C@@H]1CCCN1C(=O)[C@H](CC(N)=O)NC(=O)[C@@H](N)Cc1cnc[nH]1)C(=O)NCC(=O)N[C@@H](CC(C)C)C(=O)N[C@@H](CCSC)C(N)=O` (H-HNPASFIGLM-NH2), the IC50 (read-out: Log IC50 (converted)) was 32.4 nM. Turning to `CSCC[C@H](NC(=O)[C@H](CC(C)C)NC(=O)CNC(=O)[C@H](Cc1ccccc1)NC(=O)[C@H](Cc1ccccc1)NC(=O)[C@H](CCC(N)=O)NC(=O)[C@H](CCC(N)=O)NC(=O)[C@@H]1CCCN1C(=O)[C@H](CCCCN)NC(=O)[C@@H]1CCCN1)C(N)=O` (H-PKPQQFFGLM-NH2), the IC50 (read-out: IC50) is 4.6 nM. Same read-out and setting: with `CSCC[C@H](NC(=O)[C@H](CC(C)C)NC(=O)CNC(=O)[C@H](Cc1ccccc1)NC(=O)[C@H](Cc1ccccc1)NC(=O)[C@H](CO)NC(=O)[C@H](C)NC(=O)[C@@H]1CCCN1C(=O)[C@H](CCCCN)NC(=O)[C@@H]1CCCN1C(=O)[C@@H](N)CCCN=C(N)N)C(N)=O` (H-RPKPASFFGLM-NH2) the figure was 21 nM; with `CSCC[C@H](NC(=O)[C@H](CC(C)C)NC(=O)CNC(=O)[C@H](Cc1ccccc1)NC(=O)[C@H](Cc1ccccc1)NC(=O)[C@H](CCC(N)=O)NC(=O)[C@H](C)NC(=O)[C@@H]1CCCN1C(=O)[C@H](CCCCN)NC(=O)[C@@H]1CCCN1C(=O)[C@@H](N)CCCNC(=N)N)C(N)=O`, 0.7 nM.
